{"source": "patent US20120258172A1", "about": "“Compositions For The Treatment of Central Nervous System Disorders Including Depression Employing Novel Drug Combination Therapy To Reduce Suicidality In Patients” (priority 2010, published 2012)", "key": {"[1]": {"test_system": "severely depressed patients with suicidal thoughts and behaviors", "test": "Phase II trial: Sheehan Suicidality Tracking Scale (S-STS)", "type": "in vivo, human", "excerpt": "(§1) Ninety-three patients were screened and 80 subjects were identified who were between the ages of 18 to 75, inclusive, and met the criteria for major depressive disorder (MDD), dysthymia, depression not otherwise specified and/or borderline personality disorder as defined by Diagnostic and Statistical Manual-IV-TR and confirmed by the Mini International Neuropsychological Interview (MINI).\nSelected subjects scored >15 on the Montgomery-Åsberg Depression Rating Scale and >8 on the Sheehan Suicidality Tracking Scale (S-STS) at Screening and Baseline Visits. Subjects were excluded if they had current, unstable and significant medical conditions (a history of unstable Thyroid disorders, a history of seizure disorders, tumors or other central nervous system (CNS) condition that predisposes the patient to risk of seizure), pregnant or lactating, had any abnormal clinical laboratory test results, or ECG results which were judged by the investigator as clinically significant, a history of intolerance or hypersensitivity to citalopram, other SSRIs, or lithium, a history or current diagnosis of bipolar mood disorder, psychosis, schizophrenia or dementia, were currently involved in another clinical trial or had participated in another clinical trial less than thirty days prior, or had current or prior treatment with citalopram or escitalopram. Psychotropic medications (anti-psychotics, anti-depressants, and mood stabilizers) were excluded during the treatment phase and required a twenty-four hour washout period prior to the first dose of study medication. Diuretics, analgesics, benzodiazepines and opiates were used with caution.\n(§2) Efficacy was measured by taking S-STS (Sheehan-Suicidality Tracking Scale (Sheehan, 2009)) scores at Baseline and at each visit for 4 weeks of treatment or until end-of-treatment and measuring the change from baseline in the S-STS total score at week 4. Secondary efficacy variables were the BHS (Beck Hopelessness Scale (Beck, Steer, 1988)), BSS (Beck Scale for Suicide Ideation (Beck and Steer, 1991)), C-SSRS (Columbia Suicide Severity Rating Scale (Posner et al., 2009) and CGI (Clinical Global Impression Study (Guy, 1976)) changes at week 4. Safety measures were collected and evaluated throughout the trial. These included Adverse Events (AEs), laboratory parameters, physical examinations, ECGs and vital signs and weight measurements. Adverse events were any untoward medical event occurring in a subject administered study drug, irrespective of whether it has a causal relationship to the study drug. An adverse event could therefore be any unfavorable or unintended sign (including abnormal laboratory findings, for example), symptom, or disorder temporarily associated with study drug, whether or not considered related to the study drug. Adverse Events among the 80 participants were as follows:\nAll significance tests were two-sided. Statistical significance was assessed at the p≦0.05 level for main effects, and significance at the p≦0.10 level was considered a trend indicating efficacy. Missing values were handled using the last observation carried forward (LOCF) technique. The primary analysis population for inference was the intention-to-treat (ITT) population."}, "[2]": {"test_system": "severely depressed patients with suicidal thoughts and behaviors", "test": "Phase II trial: Beck Scale for Suicide Ideation (BSS)", "type": "in vivo, human", "settings": "n = 40 per arm", "excerpt": "as §1\n(§3) Selected subjects scored >15 on the Montgomery-Åsberg Depression Rating Scale and >8 on the Sheehan Suicidality Tracking Scale (S-STS) at Screening and Baseline Visits. […]\n(§4) Efficacy was measured by taking S-STS (Sheehan-Suicidality Tracking Scale (Sheehan, 2009)) scores at Baseline and at each visit for 4 weeks of treatment or until end-of-treatment and measuring the change from baseline in the S-STS total score at week 4. […]\n(§5) All significance tests were two-sided. Statistical significance was assessed at the p≦0.05 level for main effects, and significance at the p≦0.10 level was considered a trend indicating efficacy. […]"}, "[3]": {"test_system": "severely depressed patients with suicidal thoughts and behaviors", "test": "Phase II trial: Clinical Global Impression (CGI) severity", "type": "in vivo, human", "settings": "n = 40 per arm", "excerpt": "as §1, §3, §4, §5"}, "[4]": {"test_system": "severely depressed patients with suicidal thoughts and behaviors", "test": "Phase II trial: Montgomery-Åsberg Depression Rating Scale (MADRS)", "type": "in vivo, human", "settings": "all patients assigned, n = 40", "excerpt": "as §1, §3, §4, §5"}, "[5]": {"test_system": "severely depressed patients with suicidal thoughts and behaviors", "test": "Phase II trial: Beck Hopelessness Scale (BHS)", "type": "in vivo, human", "settings": "n = 40 per arm", "excerpt": "as §1, §3, §4, §5"}, "[6]": {"test_system": "severely depressed patients with suicidal thoughts and behaviors", "test": "Phase II trial: adverse events", "type": "in vivo, human", "experimental": "Eligible subjects were evaluated for safety parameters prior to and throughout the screening through a variety of methods including an ECG, physical exam, vital sign taking and clinical laboratory testing. A standard 12-lead ECG was performed at Screening (Visit 1) and at Week 4 (Visit 6 or Early Termination Visit). Physical examinations included determination of general appearance, mental status, skin, neck (including thyroid), eyes, ears, nose, throat, heart, lungs, abdomen, lymph nodes, musculoskeletal system, and nervous system. Vital signs included respiratory rate, radial pulse and systolic and diastolic blood pressures. Vital signs were collected in the seated position. Clinical Laboratory Testing Parameters included a Complete Metabolic Panel (Na, K, Cl, CO2, Glu, BUN, Cr, Ca, TP, Alb, TBili, AP, AST, ALT), Hematology CBC (Hgb, Hct, RBC, WBC, Pit, Diff) and TSH (w/reflex T-4). Serum HCG is performed for all females, and Urine Analysis is completed for all subjects.\nas §2, with “follows: […]” for “follows:”"}, "[7]": {"test_system": "severely depressed patients with suicidal thoughts and behaviors", "settings": "of 40 patients in the arm", "method": "(§6) All subjects received 20 mg citalopram and were randomized to either 300 mg lithium carbonate/day or placebo for 4 weeks of Double-Blind Treatment. Patients were instructed to take one capsule from the bottle and two tablets from the blister card one time daily, in the morning, orally with food. If the patient was unable to tolerate morning dosing, patient may be switched to evening dosing as long as there was 24 hours minimum between doses.\nSubjects were considered to have completed the study if they completed all of the visits."}, "[8]": {"test": "Phase II trial: serum lithium level", "type": "in vivo, human", "settings": "subgroup n = 11 of 40 on 300 mg lithium carbonate/day + 20 mg citalopram (3 at 0.5, 3 at 0.6, 5 at 0.7); week 4", "method": "as §6"}}}
{"compound": "CN(C)CCCC1(c2ccc(F)cc2)OCc2cc(C#N)ccc21", "note": "(stereo not shown) [Citalopram + Placebo, citalopram]", "values": [{"measurement": "# With Full S-STS Symptom Remission", "setting": "[1]; all patients assigned, n = 40", "value": 6}, {"measurement": "# With No change in S-STS Symptoms", "setting": "[1]; all patients assigned, n = 40", "value": 12}, {"measurement": "# with Worsening of S-STS Symptoms", "setting": "[1]; all patients assigned, n = 40", "value": 2}, {"measurement": "% With Full S-STS Symptom Remission", "setting": "[1]; all patients assigned, n = 40", "value": "(15%)"}, {"measurement": "% With No change in S-STS Symptoms", "setting": "[1]; all patients assigned, n = 40", "value": "(30%)"}, {"measurement": "% with Worsening of S-STS Symptoms", "setting": "[1]; all patients assigned, n = 40", "value": "(5%)"}, {"measurement": "Mean Total S-STS Change Score", "setting": "[1]; all patients assigned, n = 40", "value": 4.8}, {"measurement": "change in the mean total S-STS", "setting": "[1]; among the 64 completers", "value": "5.4±5.3"}, {"measurement": "BSS, Mean (SD)", "setting": "[2]; Baseline", "value": "16.2 (6.7)"}, {"measurement": "BSS, Mean (SD)", "setting": "[2]; End of Study (week 4, LOCF)", "value": "9.1 (8.2)"}, {"measurement": "CGI (Severity), Mean (SD)", "setting": "[3]; Baseline", "value": "4.9 (0.8)"}, {"measurement": "CGI (Severity), Mean (SD)", "setting": "[3]; End of Study (week 4, LOCF)", "value": "3.3 (1.8)"}, {"measurement": "Mean Total MADRS Change Score", "setting": "[4]", "value": 9.8}, {"measurement": "BHS, Mean (SD)", "setting": "[5]; Baseline", "value": "16.3 (3.4)"}, {"measurement": "BHS, Mean (SD)", "setting": "[5]; End of Study (week 4, LOCF)", "value": "11.8 (5.4)"}, {"measurement": "Adverse Events per Patient", "setting": "[6]; all patients assigned, n = 40", "value": 1.0}, {"measurement": "Anxiousness, % of patients", "setting": "[6]; n = 40 per arm, 4 weeks", "value": 3, "unit": "%"}, {"measurement": "Anxiousness, number of patients", "setting": "[6]; n = 40 per arm, 4 weeks", "value": 1}, {"measurement": "Common Cold, % of patients", "setting": "[6]; n = 40 per arm, 4 weeks", "value": 5, "unit": "%"}, {"measurement": "Common Cold, number of patients", "setting": "[6]; n = 40 per arm, 4 weeks", "value": 2}, {"measurement": "Decreased Appetite, % of patients", "setting": "[6]; n = 40 per arm, 4 weeks", "value": 5, "unit": "%"}, {"measurement": "Decreased Appetite, number of patients", "setting": "[6]; n = 40 per arm, 4 weeks", "value": 2}, {"measurement": "Dizziness, % of patients", "setting": "[6]; n = 40 per arm, 4 weeks", "value": 5, "unit": "%"}, {"measurement": "Dizziness, number of patients", "setting": "[6]; n = 40 per arm, 4 weeks", "value": 2}, {"measurement": "Headaches, % of patients", "setting": "[6]; n = 40 per arm, 4 weeks", "value": "1 (1%)"}, {"measurement": "Headaches, number of patients", "setting": "[6]; n = 40 per arm, 4 weeks", "value": "1 (1%)"}, {"measurement": "Nausea, % of patients", "setting": "[6]; n = 40 per arm, 4 weeks", "value": 3, "unit": "%"}, {"measurement": "Nausea, number of patients", "setting": "[6]; n = 40 per arm, 4 weeks", "value": 5}, {"measurement": "Restlessness, % of patients", "setting": "[6]; n = 40 per arm, 4 weeks", "value": 5, "unit": "%"}, {"measurement": "Restlessness, number of patients", "setting": "[6]; n = 40 per arm, 4 weeks", "value": 2}, {"measurement": "Somnolence, % of patients", "setting": "[6]; n = 40 per arm, 4 weeks", "value": 18, "unit": "%"}, {"measurement": "Somnolence, number of patients", "setting": "[6]; n = 40 per arm, 4 weeks", "value": 7}, {"measurement": "Total Events (most frequent and serious adverse events)", "setting": "[6]; n = 40 per arm, 4 weeks", "value": 23}, {"measurement": "Vomiting, % of patients", "setting": "[6]; n = 40 per arm, 4 weeks", "value": 3, "unit": "%"}, {"measurement": "Vomiting, number of patients", "setting": "[6]; n = 40 per arm, 4 weeks", "value": 1}, {"measurement": "patients who discontinued participation because of Adverse Event", "setting": "[7]", "value": 1}]}
{"compound": "[Li]", "note": "[lithium]", "values": [{"measurement": "serum lithium level", "setting": "[8]", "value": "≥ 0.5", "unit": "mEq/L"}]}
